Here are results for 21 molecules from US9365522B2, “Pyrazole amide derivative” (AMGEN INC., priority 2015, dated 2016).

Each structure is given as a SMILES string.

This test deals with T1, human RORγ-LBD (Homo sapiens, UniProt P51449).
T1 construct: made in house; host or cells: E. coli (BL-21)
T1 sequence (P51449 262-518): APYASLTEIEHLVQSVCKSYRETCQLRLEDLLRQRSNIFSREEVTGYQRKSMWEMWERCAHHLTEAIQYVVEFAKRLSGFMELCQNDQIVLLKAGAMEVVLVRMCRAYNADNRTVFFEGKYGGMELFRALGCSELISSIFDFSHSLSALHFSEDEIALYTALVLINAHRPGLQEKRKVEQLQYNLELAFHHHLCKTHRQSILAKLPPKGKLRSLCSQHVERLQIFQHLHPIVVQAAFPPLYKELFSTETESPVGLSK
The experiment in a line: ROR gamma coactivator peptide recruitment Alphascreen assay (RORγ-LBD binding to GRIP1 coactivator peptide). The format is biochemical. To be noted: 5 nM human RORγ-LBD, 30 nM 7-β-hydroxycholesterol, 50 nM biotinylated GRIP1 coactivator peptide, overnight incubation at room temperature; read-out: result (pIC50, RORγ coactivator peptide recruitment Alphascreen assay) (converted). In outline:
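His/Flag-tagged human RORγ-LBD (aa 262-518, E. coli-expressed, 5 nM) with agonist 7-β-hydroxycholesterol (30 nM) and biotinylated GRIP1 LXXLL peptide (50 nM) in HEPES pH 7.4 buffer, 2.5% DMSO. Compound 1-in-2 dilutions; Alphascreen bead signal read after overnight incubation at room temperature; pIC50 calculated.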
Background: Alpha assays give light when donor and acceptor beads are brought close together.

`CC1(C)CC(CN(CC(=O)c2c(Cl)cccc2Cl)C(=O)c2cnn([C@H]3C[C@H](CC(=O)O)C3)c2C(F)(F)F)C1` [Example 668, (trans-3-(4-((2-(2,6-dichlorophenyl)-2-oxoethyl)((3,3-dimethylcyclobutyl)methyl)carbamoyl) 5-(trifluoromethyl)-1H-pyrazol-1-yl)cyclobutyl)acetic acid]: the IC50 is 3.47 nM.

As to `CC1(C)CC(CN(CC(=O)c2c(Cl)cccc2Cl)C(=O)c2cnn([C@H]3C[C@@H](CC(=O)O)C3)c2C(F)(F)F)C1` [Example 669, (cis-3-(4-((2-(2,6-dichlorophenyl)-2-oxoethyl)((3,3-dimethylcyclobutyl)methyl)carbamoyl) 5-(trifluoromethyl)-1H-pyrazol-1-yl)cyclobutyl)acetic acid], the IC50 is 4.07 nM. Then `CC(C)(C)CN(CC(=O)c1c(Cl)cccc1Cl)C(=O)c1cnn([C@H]2CC[C@@H](C(=O)O)CC2)c1C(F)(F)F` [Example 670, cis-4-(4-((2-(2,6-dichlorophenyl)-2-oxoethyl)(2,2-dimethylpropyl)carbamoyl)-5-(trifluoromethyl)-1H-pyrazol-1-yl)cyclohexanecarboxylic acid], with 21.9 nM; and `CC1(CN(CC(=O)c2c(Cl)cc(F)cc2Cl)C(=O)c2cnn([C@H]3CC[C@](C)(C(=O)O)CC3)c2C(F)(F)F)CCCC1` [Example 671, trans-4-(4-((2-(2,6-dichloro-4-fluorophenyl)-2-oxoethyl)((1-methylcyclopentyl)methyl)carbamoyl)-5-(trifluoromethyl)-1H-pyrazol-1-yl)-1-methylcyclohexanecarboxylic acid], with 0.871 nM; and `CC1(C)CC(CN(CC(=O)c2c(Cl)cccc2Cl)C(=O)c2cnn([C@H]3CC[C@@](C)(C(=O)O)CC3)c2C(F)(F)F)C1` [Example 672, trans-4-(4-((2-(2,6-dichlorophenyl)-2-oxoethyl)((3,3-dimethylcyclobutyl)methyl)carbamoyl)-5-(trifluoromethyl)-1H-pyrazol-1-yl)-1-methylcyclohexanecarboxylic acid], with 2.04 nM. `CC1(C)CC[C@@H](CN(CC(=O)c2c(Cl)cncc2Cl)C(=O)c2cnn([C@H]3CC[C@](C)(C(=O)O)CC3)c2C(F)(F)F)O1` [Example 673, trans-4-(4-((2-(3,5-dichloro-4-pyridinyl)-2-oxoethyl)(((2S)-5,5-dimethyltetrahydro-2-furanyl)methyl)carbamoyl)-5-(trifluoromethyl)-1H-pyrazol-1-yl)-1-methylcyclohexanecarboxylic acid]: the IC50 was 36.3 nM. For `CC1(C)CC[C@H](CN(CC(=O)c2c(Cl)cncc2Cl)C(=O)c2cnn([C@H]3CC[C@](C)(C(=O)O)CC3)c2C(F)(F)F)O1` [Example 674, trans-4-(4-((2-(3,5-dichloro-4-pyridinyl)-2-oxoethyl)(((2S)-5,5-dimethyltetrahydro-2-furanyl)methyl)carbamoyl)-5-(trifluoromethyl)-1H-pyrazol-1-yl)-1-methylcyclohexanecarboxylic acid] the value was 17.8 nM; for `CC1(CN(CC(=O)c2c(Cl)cncc2Cl)C(=O)c2cnn([C@H]3CC[C@](C)(C(=O)O)CC3)c2C(F)(F)F)COC1` [Example 675, trans-4-(4-((2-(3,5-dichloro-4-pyridinyl)-2-oxoethyl)((3-methyl-3-oxetanyl)methyl)carbamoyl)-5-(trifluoromethyl)-1H-pyrazol-1-yl)-1-methylcyclohexanecarboxylic acid], 234 nM; for `Cc1cc(Cl)c(C(=O)CN(CC2(C)COC2)C(=O)c2cnn([C@H]3CC[C@](C)(C(=O)O)CC3)c2C(F)(F)F)c(Cl)c1` [Example 676, trans-4-(4-((2-(2,6-dichloro-4-methylphenyl)-2-oxoethyl)((3-methyl-3-oxetanyl)methyl)carbamoyl)-5-(trifluoromethyl)-1H-pyrazol-1-yl)-1-methylcyclohexanecarboxylic acid], 51.3 nM. For `C[C@]1(C(=O)O)CC[C@H](n2ncc(C(=O)N(CC(=O)c3c(Cl)cncc3Cl)[C@H]3C[C@@H]4CC[C@H]3C4)c2C(F)(F)F)CC1` [Example 677, trans-4-(4-((1S,2R,4R)-bicyclo[2.2.1]hept-2-yl(2-(3,5-dichloro-4-pyridinyl)-2-oxoethyl)carbamoyl)-5-(trifluoromethyl)-1H-pyrazol-1-yl)-1-methylcyclohexanecarboxylic acid] the value was 5.62 nM; for `Cc1cc(Cl)c(C(=O)CN(C(=O)c2cnn([C@H]3CC[C@](C)(C(=O)O)CC3)c2C(F)(F)F)[C@H]2C[C@@H]3CC[C@H]2C3)c(Cl)c1` [Example 678, trans-4-(4-((1S,2S,4R)-bicyclo[2.2.1]hept-2-yl(2-(2,6-dichloro-4-methylphenyl)-2-oxoethyl)carbamoyl)-5-(trifluoromethyl)-1H-pyrazol-1-yl)-1-methylcyclohexanecarboxylic acid], 1.07 nM. Regarding `CC1(C)CC[C@H](CN(CCc2c(Cl)cncc2Cl)C(=O)c2cnn([C@H]3CC[C@](C)(C(=O)O)CC3)c2C(F)(F)F)O1` [Example 679, trans-4-(4-((2-(3,5-dichloro-4-pyridinyl)ethyl)(((2R)-5,5-dimethyltetrahydro-2-furanyl)methyl)carbamoyl)-5-(trifluoromethyl)-1H-pyrazol-1-yl)-1-methylcyclohexanecarboxylic acid], the IC50 was 12 nM. For `CC1(C)CC[C@@H](CN(CCc2c(Cl)cncc2Cl)C(=O)c2cnn([C@H]3CC[C@](C)(C(=O)O)CC3)c2C(F)(F)F)O1` [Example 680, trans-4-(4-((2-(3,5-dichloro-4-pyridinyl)ethyl)(((2S)-5,5-dimethyltetrahydro-2-furanyl)methyl)carbamoyl)-5-(trifluoromethyl)-1H-pyrazol-1-yl)-1-methylcyclohexanecarboxylic acid] the value was 47.9 nM; for `C[C@]1(CN(CCc2c(Cl)cncc2Cl)C(=O)c2cnn([C@H]3CC[C@](C)(C(=O)O)CC3)c2C(F)(F)F)CCCO1` [Example 681, trans-4-(4-((2-(3,5-dichloro-4-pyridinyl)ethyl)(((2R)-2-methyltetrahydro-2-furanyl)methyl)carbamoyl)-5-(trifluoromethyl)-1H-pyrazol-1-yl)-1-methylcyclohexanecarboxylic acid], 9.55 nM. With `C[C@@]1(CN(CCc2c(Cl)cncc2Cl)C(=O)c2cnn([C@H]3CC[C@](C)(C(=O)O)CC3)c2C(F)(F)F)CCCO1` [Example 682, trans-4-(4-((2-(3,5-dichloro-4-pyridinyl)ethyl)(((2S)-2-methyltetrahydro-2-furanyl)methyl)carbamoyl)-5-(trifluoromethyl)-1H-pyrazol-1-yl)-1-methylcyclohexanecarboxylic acid], the IC50 was 50.1 nM. For `C[C@@H]1C[C@H](n2ncc(C(=O)N(CC(=O)c3c(Cl)cccc3Cl)CC3CC(C)(C)C3)c2C(F)(F)F)CC[C@@H]1C(=O)O` [Example 683, (1S,2R,4R)-4-(4-((2-(2,6-dichlorophenyl)-2-oxoethyl)((3,3-dimethylcyclobutyl)methyl)carbamoyl)-5-(trifluoromethyl)-1H-pyrazol-1-yl)-2-methylcyclohexanecarboxylic acid] the value was 8.91 nM; for `C[C@H]1C[C@@H](n2ncc(C(=O)N(CC(=O)c3c(Cl)cccc3Cl)CC3CC(C)(C)C3)c2C(F)(F)F)CC[C@H]1C(=O)O` [Example 684, (1R,2S,4S)-4-(4-((2-(2,6-dichlorophenyl)-2-oxoethyl)((3,3-dimethylcyclobutyl)methyl)carbamoyl)-5-(trifluoromethyl)-1H-pyrazol-1-yl)-2-methylcyclohexanecarboxylic acid], 13.8 nM; for `CC1(C)C[C@H](CN(CC(=O)c2c(Cl)cncc2Cl)C(=O)c2cnn([C@H]3CC[C@](C)(C(=O)O)CC3)c2C(F)(F)F)O1` [Example 685, trans-4-(4-((2-(3,5-dichloro-4-pyridinyl)-2-oxoethyl)(((2R)-4,4-dimethyl-2-oxetanyl)methyl)carbamoyl)-5-(trifluoromethyl)-1H-pyrazol-1-yl)-1-methylcyclohexanecarboxylic acid], 97.7 nM. In the case of `CC1(C)C[C@@H](CN(CC(=O)c2c(Cl)cncc2Cl)C(=O)c2cnn([C@H]3CC[C@](C)(C(=O)O)CC3)c2C(F)(F)F)O1` [Example 686, trans-4-(4-((2-(3,5-dichloro-4-pyridinyl)-2-oxoethyl)(((2S)-4,4-dimethyl-2-oxetanyl)methyl)carbamoyl)-5-(trifluoromethyl)-1H-pyrazol-1-yl)-1-methylcyclohexanecarboxylic acid], the IC50 was 91.2 nM. For `Cc1cc(Cl)c(C(=O)CN(CC(C)(C)C)C(=O)c2cnn([C@H]3CC[C@](C)(C(=O)O)CC3)c2C(F)(F)F)c(Cl)n1` [Example 687, trans-4-(4-((2-(2,4-dichloro-6-methyl-3-pyridinyl)-2-oxoethyl)(2,2-dimethylpropyl)carbamoyl)-5-(trifluoromethyl)-1H-pyrazol-1-yl)-1-methylcyclohexanecarboxylic acid] the value was 14.8 nM; for `CC1(C)C[C@H](Cc2c(Cl)cncc2Cl)N(C(=O)c2cnn([C@H]3CC[C@](C)(C(=O)O)CC3)c2C(F)(F)F)C1` [Example 688], 110 nM.
